Test results as given in US11542316B2, “S-Arrestin peptides and therapeutic uses thereof” (APITOPE INTERNATIONAL NV, priority 2017, dated 2023).
Ends that are not written are not given here.

Tested on: LN cells and splenocytes upon SAg or peptide restimulation
Test: Ex vivo tolerization experiment, DR3tg mice
Assay type: in vivo
Details: IFN-γ; for reduction in response to HIP-115 and HIP-115NE3 peptides: highest concentrations of probing peptide
Method: FIG. 7: Ex vivo tolerisation protocol. Mice are injected subcutaneously in the flank with 0.1 μg/ml, 1 μg/ml and 10 μg/ml peptide on days −15, −13 and −11, followed by 3 injections of 100 μg/ml on days −8, −6 and −4 (escalating dose regime). On day 0, mice are immunized subcutaneously at the base of the tail with SAg/CFA or peptide/CFA. Mice are sacrificed 10 days after immunization to measure proliferation of LN cells and splenocytes upon SAg or peptide restimulation. LN, lymph nodes.
FIG. 8: Ex vivo tolerance induction by HIP-115NE3-KKK apitope. DR3 mice are injected subcutaneously in the flank with 0.1 μg/ml, 1 μg/ml and 10 μg/ml HIP-115NE3-KKK on days −15, −13 and −11, followed by 3 injections of 100 μg/ml on days −8, −6 and −4 (escalating dose regime). On day 0, mice are immunized subcutaneously at the base of the tail with HIP-115/CFA. Mice are sacrificed 10 days after immunization to measure proliferation of LN cells and splenocytes upon SAg or peptide restimulation. Data represent mean±SEM of the concentration or OD values for the PBS-treated mice (black lines) and peptide-treated mice (color lines). Two-way ANOVA was used to measure overall treatment effects on T cell activation and p-values are written in the graphs. Bonferonni post-hoc testing was used and significant differences are indicated in the graphs (* p<0.05; **** p<0.0001). LN, lymph nodes. (A) Tolerisation against SAg in LN. IFN-γ production expressed as IFN-γ concentration (pg/ml). (B) Tolerisation against SAg in spleen. IFN-γ production expressed as IFN-γ concentration (pg/ml). (C) Tolerisation against HIP-115 and HIP-115NE3 peptides in LN. IFN-γ production expressed as OD values. (D) Tolerisation against HIP-115 and HIP-115NE3 peptides in spleen. IFN-γ production expressed as OD values.
FIG. 9: Ex vivo tolerance induction by HIP-11B apitope. DR3 mice are injected subcutaneously in the flank with 0.1 μg/ml, 1 μg/ml and 10 μg/ml HIP-11B on days −15, −13 and −11, followed by 3 injections of 100 μg/ml on days −8, −6 and −4 (escalating dose regime). On day 0, mice are immunized subcutaneously at the base of the tail with HIP-11B/CFA. Mice are sacrificed 10 days after immunization to measure proliferation of LN cells and splenocytes upon SAg or peptide restimulation. Data represent mean±SEM of the concentration values for the PBS-treated mice (black lines) and peptide-treated mice (color lines). IFN-γ production expressed as IFN-γ concentration (pg/ml). Two-way ANOVA was used to measure overall treatment effects on T cell activation and p-values are written in the graphs. Bonferonni post-hoc testing was used and significant differences are indicated in the graphs (* p<0.05; **** p<0.0001). LN, lymph nodes. (A) Tolerisation against SAg in LN. (B) Tolerisation against SAg in spleen. (C) Tolerisation against HIP-11B peptide in LN. (D) Tolerisation against HIP-11B peptide in spleen.
FIG. 10: Ex vivo tolerance induction by HIP-24DG apitope. DR3 mice are injected subcutaneously in the flank with 0.1 μg/ml, 1 μg/ml and 10 μg/ml HIP-24DG on days −15, −13 and −11, followed by 3 injections of 100 μg/ml on days −8, −6 and −4 (escalating dose regime). On day 0, mice are immunized subcutaneously at the base of the tail with HIP-24DG+HIP-24HM/CFA. Mice are sacrificed 10 days after immunization to measure proliferation of LN cells and splenocytes upon SAg or peptide restimulation. Data represent mean±SEM of the OD values for the PBS-treated mice (black lines) and peptide-treated mice (color lines). IFN-γ production expressed as OD values. LN, lymph nodes. Two-way ANOVA was used to measure overall treatment effects on T cell activation and p-values are written in the graphs. Bonferonni post-hoc testing was used and significant differences are indicated in the graphs (* p<0.05; ** p<0.01; *** p<0.001: **** p<0.0001). LN, lymph nodes. (A) Tolerisation against SAg in LN. (B) Tolerisation against HIP-24DG in LN. (C) Tolerisation against HIP-24HM2 peptide in LN. […]

Substance: KKKVIFKKISRDKSVTIYLGKKK-NH2 [HIP-115NE3-KKK]
- reduction in response to SAg (LN and spleen, highest dose of SAg used for probing, escalating dose regime s.c.): 70%
- reduction in response to HIP-115 and HIP-115NE3 peptides (LN): 55%
- reduction in response to HIP-115 and HIP-115NE3 peptides (spleen): 65%

Substance: KKKLTFRRDLYFSRVQVYKKK-NH2 [HIP-17J-KKK]
- tolerization against SAg (spleen, DR3 mice, escalating dose regime s.c.): tolerization induced

Substance: LTKTLTLLPLLANNRERR-NH2 [HIP-24DG, LTKTLTLLPLLANNRERR]
- tolerization against the peptide itself / peptides of the same region (LN, DR3 mice): some tolerization
- tolerization against SAg (LN, DR3 mice, escalating dose regime s.c.): tolerization induced
